Assay results as given in patent US20060040872A1, “Calcium channel inhibitor” (SENMI EKISU CO., LTD, priority 2004, published 2006).
Where a SMILES comes first, the peptide text is derived from it.

Tests used:
Type in all cases: cell-based
[1] = tested on: normal human aortic vessel smooth muscle cells (VSMC); experiment: Influence on calcium channel agonist (Bay K 8644) stimulation of VSMC growth (WST-8); settings: 48 hours
Experimental: Inflow of calcium ion which is downstream of Ang II stimulation showing a cell growth promoting action was investigated. […] Then 10 μM of WST-8 was added thereto and amount of water-soluble formazan produced by color reaction for 3 hours at 37° C. in a CO2 incubator was determined by absorbance at 450 nm whereupon cell growth was measured from the synthesized amount of DNA.
Then 10 μM of WST-8 was added thereto and amount of water-soluble formazan produced by color reaction for 3 hours at 37° C. in a CO2 incubator was determined by absorbance at 450 nm whereby cell growth was measured from synthesized amount of DNA.

[2] = tested on: normal human aortic vessel smooth muscle cells (VSMC); experiment: Influence of VY on Ang II receptor: VSMC growth with Ang II and saralasin (WST-8); settings: 48 hours, FIG. 17
Experimental: (§1) As to cells, normal human aortic vessel smooth muscle cells (VSMC; Cyro AOSMC (trade name) manufactured by Sanko Junyaku Co.) were used while, as to VY, valyl-tyrosine which was chemically synthesized was used and a calcium channel inhibiting action by VY was confirmed.
Influence of VY on Ang II receptor AT1 existing on the surface of VSMC was investigated. That is, VSMC was pre-incubated in a serum-free medium for 24 hours on a 96-well plate and incubation was conducted for 48 hours after 1 μM of Ang II was added, 10 μM of saralasin which is an Ang II antagonist was added, each 1 μM of Ang II and saralasin were added or each 1 μM of Ang II and saralasin and 1 mM of VY were added. Then 10 μM of WST-8 was added thereto and amount of water-soluble formazan formed by color reaction for 3 hours at 37° C. in a CO2 incubator was determined by absorbance at 450 nm whereby cell growth was measured from the synthesized amount of DNA. The result which was made into a graph is FIG. 17 (effect of VY and saralasin (Ang II antagonist) on Ang II stimulation).

[3] = tested on: normal human aortic vessel smooth muscle cells (VSMC); experiment: Influence on VSMC growth by Ang II stimulation (WST-8); settings: 48 hours
Experimental: as §1
When Ang II (angiotensin II) is added to an incubated liquid of VSMC, cell growth thereof is promoted. It has been known to be due to the fact that Ang II is bonded to an AT1 receptor existing on the surface of VSMC, the bonding signal flows in the cells and, as a result, calcium channel opens and calcium ion flows into the cells. Such a mechanism was utilized to conduct the following experiment.
VSMC was pre-incubated for 24 hours on a serum-free medium on a 96-well plate and three kinds of samples—a control to which no additive was added, a sample to which only Ang II was added in a concentration of 1 μM (Ang II (+)) and a sample to which Ang II and VY were added in concentrations of 1 μM and 1 mM, respectively (Ang II(+)VY(+))—were incubated for 48 hours. Then 10 μM of WST-8 was added thereto and amount of water-soluble formazan resulted by color reaction at 37° C. for 3 hours in a CO2 incubator was measured from absorbance at 450 nm whereupon cell growth was measured form the synthesized amount of DNA. The result which was made into a graph is FIG. 14 (effect of VY on Ang II stimulation).
Further, cell growth when concentration of VY added by the same method was made 0 μM, 1 μM, 10 μM, 100 μM and 1 mM was measured. That is, VSMC was pre-incubated on a serum-free medium for 24 hours on a 96-well plate and six kinds of samples—a control where nothing was added and five samples where Ang II was added in a concentration of 1 μM and VY was further added in concentrations 0 μM, 1 μM, 10 μM, 100 μM and 1 mM—were incubated for 48 hours. Then 10 μM WST-8 was added thereto and amount of water-soluble formazan produced by color reaction at 37° C. for 3 hours in a CO2 incubator was determined from absorbance at 450 nm whereupon cell growth was measured from the synthesized amount of DNA. The result which was made into a graph is FIG. 15 (dependency of VY concentration to VSMC growth by Ang II stimulation).
VSMC was pre-incubated in a serum-free-medium for 24 hours on a 96-well plate, then 1 μM of captopril which is an ACE inhibitor was added thereto and incubation was conducted for 48 hours. Then 10 μM WST-8 was added thereto and amount of water-soluble formazan produced by color reaction for 3 hours was determined from absorbance at 450 nm whereupon cell growth was measured from synthesized amount of DNA. The result which was made into a graph is FIG. 16 (influence of ACE inhibitor on Ang II stimulation).

[4] = tested on: normal human aortic vessel smooth muscle cells (VSMC); experiment: Influence of VY on VSMC growth in the presence of 5% FBS (Trypan Blue living cell count); settings: VY 0, 50 and 100 μM, 5 v/v % FBS medium, 5 days at 37° C., FIG. 12
Experimental: as §1
VSMC (1×10^5 cell/ml) was pre-incubated for 24 hours in a serum-free medium and transferred to a medium containing 5 v/v % of FBS (fetal bovine serum), 1 w/v % of hEGF (human epidermal growth factor) and 1 w/v % of hEGF-β, then VY was added thereto so as to make its concentrations 0, 50 and 100 μM and incubation of the resulting mixtures was conducted for 5 days at 37° C. in a CO2 incubator. This was stained with Trypan Blue and living cells were counted by a blood corpuscle counter. The result which is made into a graph is FIG. 12 (effect of addition of VY in the presence of 5% FBS).

[5] = tested on: normal human aortic vessel smooth muscle cells (VSMC); experiment: VY toxicity test on VSMC (WST-8); settings: 0 mM or 1 mM VY; 48 hours; serum-free; WST-8 absorbance at 450 nm; FIG. 13
Experimental: as §1
In order to check the toxicity of VY, VSMC was pre-incubated for 24 hours on a serum-free medium on a 96-well plate, 0 mM or 1 mM of VY was added thereto and incubation was conducted for 48 hours. To this was added a solution containing 10 μM of WST-8 (2-(2-methoxy-4-nitrophenyl)-3-(4-nitrophenyl)-5-(2,4-disulfophenyl)-2H-tetrazolium (Cell Counting Kit-8; manufactured by Dojin Kagaku CO.)), color reaction was conducted in a CO2 incubator at 37° C. for 3 hours and the amount of the resulting water-soluble formazan was determined by absorbance at 450 nm where cell growth was measured from the synthesized amount of DNA. The result which was made into a graph is FIG. 13 (VY toxicity test). As a result, it was noted that there was no difference between their cell growths and that VY is non-toxic.

With `COc1ccc(CCN(C)CCCC(C#N)(c2ccc(OC)c(OC)c2)C(C)C)cc1OC` (stereo not shown) [verapamil, reference compound] the “cell growth under Bay K 8644 stimulation” value ([1]; each 1 μM of Bay K 8644 and verapamil, FIG. 18) was “suppressed the cell growth promoting activity”.
In the case of `CNCC(=O)N[C@@H](CCCN=C(N)N)C(=O)N[C@H](C(=O)N[C@@H](Cc1ccc(O)cc1)C(=O)N[C@H](C(=O)N[C@@H](Cc1cnc[nH]1)C(=O)N1CCC[C@H]1C(=O)N[C@@H](C)C(=O)O)C(C)C)C(C)C` [saralasin], the cell growth ([2]; each 1 μM of Ang II and saralasin) is reported as “the growth promotion effect was weak as compared with the case of sole use of saralasin” and the cell growth ([2]; saralasin alone, 10 μM) is reported as “cell growth was promoted although that was not so significant as in the case of addition of Ang II”.
`C[C@H](CS)C(=O)N1CCC[C@H]1C(=O)O` [captopril, reference compound] was tested, and the “influence of ACE inhibitor on Ang II stimulation (cell growth)” value ([3]; captopril 1 μM, FIG. 16) was “did not show a suppressive action to Ang II stimulation”.
In the case of `CC(C)[C@H](N)C(=O)N[C@@H](Cc1ccc(O)cc1)C(=O)O` [VY, valyl-tyrosine] (H-Val-Tyr-OH), the “cell growth (living cells counted)” value [4] is reported as “cell growth was suppressed in proportion to the added VY concentration”, the “toxicity (cell growth)” value [5] is reported as “non-toxic” and the “cell growth under Ang II stimulation” value ([3]; Ang II 1 μM and VY 1 mM, FIG. 14) is reported as “cell growth was not promoted”. For the same molecule, the “dependency of VY concentration to VSMC growth by Ang II stimulation” value ([3]; Ang II 1 μM, VY 0 μM, 1 μM, 10 μM, 100 μM and 1 mM, FIG. 15) was “suppressive effect to the growth of VSMC by Ang II stimulation in a concentration-depending manner”, the cell growth ([2]; each 1 μM of Ang II and saralasin and 1 mM of VY) was “no growth promoting effect was noted” and the “cell growth under Bay K 8644 stimulation” value ([1]; 1 μM of Bay K 8644 and 1 mM of VY, FIG. 18) was “suppressed cell growth promoting activity as same as in the case of addition of verapamil”. For the same molecule, the “dependency on concentration of VY to Bay K 8644 stimulation (cell growth)” value ([1]; 1 μM of Bay K 8644 with 0, 10 μM, 100 μM or 1 mM of VY, FIG. 19) was “suppressive effect to VSMC growth by Bay K 8644 stimulation in a concentration-dependent manner”.
For “angiotensin II (DRVYIHPF; Angiotensin-2; UniProt P01019 25-32, looked up) [Ang II, angiotensin II, promotes VSMC growth via AT1 receptor, reference compound]”, the cell growth ([3]; Ang II alone 1 μM, FIG. 14) was “growth was strongly promoted”.
`COC(=O)C1=C(C)NC(C)=C([N+](=O)[O-])C1c1ccccc1C(F)(F)F` (stereo not shown) [Bay K 8644, reference compound] was tested, and the cell growth ([1]; Bay K 8644 alone 1 μM, FIG. 18) was “cell growth was promoted”.
